Measurements taken from ChEMBL document CHEMBL1201862, “PubChem BioAssay data set” (2004).
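Each compound was tested at five concentrations against cells in 96-well plates for 48 hours. Here, GI50 denotes the concentration required for 50% inhibition of growth.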 Activity calls are given as the source filed them. Rule as the data show it: active = GI50 up to about 1.1 µM and inactive = higher.

Key:
Experiment in all cases: DTP human tumour cell line panel, 48 h
ACHN = system: ACHN
A498 = system: A498
NCI-H460 = system: NCI-H460
SNB-19 = system: SNB-19
COLO 205 = system: COLO 205
SK-MEL-2 = system: SK-MEL-2
T47D = system: T47D
OVCAR-5 = system: OVCAR-5
SK-MEL-28 = system: SK-MEL-28
MDA-N = system: MDA-N
UACC-62 = system: UACC-62
SN12C = system: SN12C
KM12 = system: KM12
SW-620 = system: SW-620
K562 = system: K562
SF-539 = system: SF-539
UO-31 = system: UO-31
UACC-257 = system: UACC-257
NCI-H226 = system: NCI-H226
A549 = system: A549
SK-OV-3 = system: SK-OV-3
HCT-116 = system: HCT-116
MOLT-4 = system: MOLT-4
OVCAR-4 = system: OVCAR-4
EKVX = system: EKVX
SF-268 = system: SF-268
Malme-3M = system: Malme-3M
NCI/ADR-RES = system: NCI/ADR-RES
BT-549 = system: BT-549
HCT-15 = system: HCT-15
MDA-MB-435 = system: MDA-MB-435
CCRF-CEM = system: CCRF-CEM
U-251 = system: U-251
RPMI-8226 = system: RPMI-8226
CAKI-1 = system: CAKI-1
HOP-62 = system: HOP-62
M14 = system: M14
HT-29 = system: HT-29
PC-3 = system: PC-3
MDA-MB-231 = system: MDA-MB-231
NCI-H23 = system: NCI-H23
DU-145 = system: DU-145
786-0 = system: 786-0
OVCAR-8 = system: OVCAR-8
MCF7 = system: MCF7
SF-295 = system: SF-295
OVCAR-3 = system: OVCAR-3
SNB-75 = system: SNB-75
HL-60 = system: HL-60
TK-10 = system: TK-10
HOP-92 = system: HOP-92
RXF 393 = system: RXF 393
SR = system: SR
LOX IMVI = system: LOX IMVI
NCI-H522 = system: NCI-H522
SK-MEL-5 = system: SK-MEL-5
HCC 2998 = system: HCC 2998
IGROV-1 = system: IGROV-1

## COc1ccccc1N/C(SCc1ccccc1)=C(/C(Cl)=C(Cl)Cl)[N+](=O)[O-]
ACHN
  GI50: 32.1 µM (inactive)
A498
  GI50: 82.8 µM (inactive)
NCI-H460
  GI50: 58.2 µM (inactive)
SNB-19
  GI50: 39.4 µM (inactive)
COLO 205
  GI50: 19.5 µM (inactive)
SK-MEL-2
  GI50: 29.6 µM (inactive)
T47D
  GI50: 26.1 µM (inactive)
OVCAR-5
  GI50: 33.3 µM (inactive)
SK-MEL-28
  GI50: 15.1 µM (inactive)
MDA-N
  GI50: 28.9 µM (inactive)
UACC-62
  GI50: 48 µM (inactive)
SN12C
  GI50: 20.3 µM (inactive)
KM12
  GI50: 34 µM (inactive)
SW-620
  GI50: 17.8 µM (inactive)
K562
  GI50: 19.8 µM (inactive)
SF-539
  GI50: 17.4 µM (inactive)
UO-31
  GI50: 16.4 µM (inactive)
UACC-257
  GI50: 85.3 µM (inactive)
NCI-H226
  GI50: 35.5 µM (inactive)
A549
  GI50: 30.4 µM (inactive)
SK-OV-3
  GI50: 46.5 µM (inactive)
HCT-116
  GI50: 31.3 µM (inactive)
MOLT-4
  GI50: 28.2 µM (inactive)
OVCAR-4
  GI50: 22 µM (inactive)
EKVX
  GI50: 32 µM (inactive)
SF-268
  GI50: 18.6 µM (inactive)
Malme-3M
  GI50: 17.4 µM (inactive)
NCI/ADR-RES
  GI50: 24.2 µM (inactive)
BT-549
  GI50: 15.1 µM (inactive)
HCT-15
  GI50: 20.7 µM
MDA-MB-435
  GI50: 17.3 µM (inactive)
CCRF-CEM
  GI50: 23.6 µM (inactive)
U-251
  GI50: 21.1 µM (inactive)
RPMI-8226
  GI50: 26.6 µM (inactive)
CAKI-1
  GI50: 28.8 µM (inactive)
HOP-62
  GI50: 28.6 µM (inactive)
M14
  GI50: 27 µM (inactive)
HT-29
  GI50: 20.3 µM (inactive)
PC-3
  GI50: 31.8 µM (inactive)
MDA-MB-231
  GI50: 18.7 µM (inactive)
NCI-H23
  GI50: 16.1 µM (inactive)
DU-145
  GI50: 26.7 µM (inactive)
786-0
  GI50: 30.5 µM (inactive)
OVCAR-8
  GI50: 14.4 µM (inactive)
MCF7
  GI50: 25.9 µM (inactive)
SF-295
  GI50: 25.7 µM (inactive)
OVCAR-3
  GI50: 18.7 µM (inactive)
SNB-75
  GI50: 31.8 µM (inactive)

## CO/C(=N\N=C\c1ccc(Cl)cc1Cl)c1ccncc1
ACHN
  GI50: > 10 µM (inactive)
NCI-H460
  GI50: > 10 µM (inactive)
SNB-19
  GI50: > 10 µM (inactive)
HL-60
  GI50: > 10 µM (inactive)
COLO 205
  GI50: > 10 µM (inactive)
SK-MEL-2
  GI50: > 10 µM (inactive)
T47D
  GI50: 7.69 µM (inactive)
OVCAR-5
  GI50: > 10 µM (inactive)
MDA-N
  GI50: 4.51 µM (inactive)
SN12C
  GI50: > 10 µM (inactive)
KM12
  GI50: > 10 µM (inactive)
SW-620
  GI50: > 10 µM (inactive)
K562
  GI50: > 10 µM (inactive)
UO-31
  GI50: > 10 µM (inactive)
UACC-257
  GI50: > 10 µM (inactive)
TK-10
  GI50: > 10 µM (inactive)
NCI-H226
  GI50: > 10 µM (inactive)
A549
  GI50: > 10 µM (inactive)
HCT-116
  GI50: > 10 µM (inactive)
MOLT-4
  GI50: > 10 µM (inactive)
OVCAR-4
  GI50: > 10 µM (inactive)
EKVX
  GI50: > 10 µM (inactive)
SF-268
  GI50: > 10 µM (inactive)
Malme-3M
  GI50: > 10 µM (inactive)
NCI/ADR-RES
  GI50: > 10 µM (inactive)
BT-549
  GI50: > 10 µM (inactive)
HOP-92
  GI50: > 10 µM (inactive)
RXF 393
  GI50: > 10 µM (inactive)
SR
  GI50: > 10 µM (inactive)
HCT-15
  GI50: > 10 µM
MDA-MB-435
  GI50: 3.66 µM (inactive)
CCRF-CEM
  GI50: > 10 µM (inactive)
U-251
  GI50: > 10 µM (inactive)
RPMI-8226
  GI50: 6.24 µM (inactive)
CAKI-1
  GI50: > 10 µM (inactive)
HOP-62
  GI50: > 10 µM (inactive)
LOX IMVI
  GI50: > 10 µM (inactive)
M14
  GI50: > 10 µM (inactive)
HT-29
  GI50: > 10 µM (inactive)
NCI-H522
  GI50: > 10 µM (inactive)
PC-3
  GI50: > 10 µM (inactive)
MDA-MB-231
  GI50: > 10 µM (inactive)
NCI-H23
  GI50: > 10 µM (inactive)
DU-145
  GI50: > 10 µM (inactive)
786-0
  GI50: > 10 µM (inactive)
OVCAR-8
  GI50: > 10 µM (inactive)
MCF7
  GI50: > 10 µM (inactive)
SF-295
  GI50: > 10 µM (inactive)
OVCAR-3
  GI50: > 10 µM (inactive)

## CCCCNC(=S)Nc1nc(C(=O)NNC(=S)Nc2ccccc2)cs1
ACHN
  GI50: > 100 µM (inactive)
A498
  GI50: 33.1 µM (inactive)
NCI-H460
  GI50: > 100 µM (inactive)
SNB-19
  GI50: > 100 µM (inactive)
COLO 205
  GI50: 32.7 µM (inactive)
SK-MEL-2
  GI50: 44.9 µM (inactive)
T47D
  GI50: > 100 µM (inactive)
OVCAR-5
  GI50: > 100 µM (inactive)
MDA-N
  GI50: > 100 µM (inactive)
SK-MEL-5
  GI50: 40.4 µM (inactive)
UACC-62
  GI50: > 100 µM (inactive)
SN12C
  GI50: > 100 µM (inactive)
KM12
  GI50: > 100 µM (inactive)
SW-620
  GI50: > 100 µM (inactive)
SF-539
  GI50: > 100 µM (inactive)
UO-31
  GI50: > 100 µM (inactive)
UACC-257
  GI50: > 100 µM (inactive)
TK-10
  GI50: > 100 µM (inactive)
NCI-H226
  GI50: > 100 µM (inactive)
A549
  GI50: > 100 µM (inactive)
SK-OV-3
  GI50: > 100 µM (inactive)
HCT-116
  GI50: > 100 µM (inactive)
MOLT-4
  GI50: > 100 µM (inactive)
OVCAR-4
  GI50: > 100 µM (inactive)
EKVX
  GI50: > 100 µM (inactive)
SF-268
  GI50: > 100 µM (inactive)
NCI/ADR-RES
  GI50: > 100 µM (inactive)
BT-549
  GI50: > 100 µM (inactive)
HOP-92
  GI50: 21.4 µM (inactive)
HCT-15
  GI50: > 100 µM
MDA-MB-435
  GI50: 61 µM (inactive)
CCRF-CEM
  GI50: > 100 µM (inactive)
U-251
  GI50: 21.1 µM (inactive)
RPMI-8226
  GI50: > 100 µM (inactive)
CAKI-1
  GI50: > 100 µM (inactive)
HOP-62
  GI50: > 100 µM (inactive)
M14
  GI50: 82.8 µM (inactive)
HT-29
  GI50: > 100 µM (inactive)
PC-3
  GI50: > 100 µM (inactive)
MDA-MB-231
  GI50: 30.3 µM (inactive)
NCI-H23
  GI50: > 100 µM (inactive)
DU-145
  GI50: > 100 µM (inactive)
786-0
  GI50: 40.1 µM (inactive)
OVCAR-8
  GI50: > 100 µM (inactive)
HCC 2998
  GI50: > 100 µM (inactive)
MCF7
  GI50: > 100 µM (inactive)
SF-295
  GI50: > 100 µM (inactive)
OVCAR-3
  GI50: > 100 µM (inactive)
SNB-75
  GI50: 38.3 µM (inactive)

## COc1ccc2c(c1)OCC1Cc3cccc(OC)c3OC21 (centres undefined)
A498
  GI50: > 100 µM (inactive)
COLO 205
  GI50: 41.6 µM (inactive)
SK-MEL-2
  GI50: 51.3 µM (inactive)
T47D
  GI50: 30.1 µM (inactive)
OVCAR-5
  GI50: > 100 µM (inactive)
MDA-N
  GI50: 50.5 µM (inactive)
SK-MEL-5
  GI50: 17.7 µM (inactive)
UACC-62
  GI50: 71.1 µM (inactive)
SN12C
  GI50: > 100 µM (inactive)
KM12
  GI50: 65 µM (inactive)
SW-620
  GI50: 60.3 µM (inactive)
SF-539
  GI50: > 100 µM (inactive)
UO-31
  GI50: 30.3 µM (inactive)
UACC-257
  GI50: 36.1 µM (inactive)
TK-10
  GI50: 40.3 µM (inactive)
NCI-H226
  GI50: 67.3 µM (inactive)
A549
  GI50: 70 µM (inactive)
SK-OV-3
  GI50: > 100 µM (inactive)
HCT-116
  GI50: 45.1 µM (inactive)
MOLT-4
  GI50: 28 µM (inactive)
EKVX
  GI50: 52.2 µM (inactive)
SF-268
  GI50: > 100 µM (inactive)
Malme-3M
  GI50: 70.8 µM (inactive)
NCI/ADR-RES
  GI50: 31.1 µM (inactive)
BT-549
  GI50: 26.9 µM (inactive)
HOP-92
  GI50: > 100 µM (inactive)
IGROV-1
  GI50: 66.7 µM (inactive)
SR
  GI50: 59.7 µM (inactive)
HCT-15
  GI50: 48 µM
MDA-MB-435
  GI50: 28.7 µM (inactive)
CCRF-CEM
  GI50: 40 µM (inactive)
U-251
  GI50: > 100 µM (inactive)
RPMI-8226
  GI50: 36.9 µM (inactive)
CAKI-1
  GI50: > 100 µM (inactive)
HOP-62
  GI50: > 100 µM (inactive)
LOX IMVI
  GI50: 45.5 µM (inactive)
M14
  GI50: 96.2 µM (inactive)
HT-29
  GI50: 72.8 µM (inactive)
NCI-H522
  GI50: 55.6 µM (inactive)
PC-3
  GI50: 35.6 µM (inactive)
MDA-MB-231
  GI50: 60.7 µM (inactive)
NCI-H23
  GI50: 58.3 µM (inactive)
DU-145
  GI50: > 100 µM (inactive)
786-0
  GI50: > 100 µM (inactive)
OVCAR-8
  GI50: 45.8 µM (inactive)
HCC 2998
  GI50: 93.3 µM (inactive)
SF-295
  GI50: 64.6 µM (inactive)
OVCAR-3
  GI50: 51.2 µM (inactive)
